Laboratory results from ChEMBL document CHEMBL1201862, “PubChem BioAssay data set” (2004).
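Five concentrations, 48 hours, 96-well plates. The concentration for 50% growth inhibition is given as GI50.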 Active and inactive are the calls of the source. Rule as the data show it: active = GI50 up to about 1.1 µM and inactive = higher.

How the values were obtained:
Test in all cases: growth of human tumour cells (NCI), 48 h
786-0 = test system: 786-0
A498 = test system: A498
A549 = test system: A549
ACHN = test system: ACHN
BT-549 = test system: BT-549
CAKI-1 = test system: CAKI-1
CCRF-CEM = test system: CCRF-CEM
COLO 205 = test system: COLO 205
DU-145 = test system: DU-145
EKVX = test system: EKVX
HCC 2998 = test system: HCC 2998
HCT-116 = test system: HCT-116
HCT-15 = test system: HCT-15
HL-60 = test system: HL-60
HOP-92 = test system: HOP-92
HT-29 = test system: HT-29
Hs-578T = test system: Hs-578T
IGROV-1 = test system: IGROV-1
K562 = test system: K562
KM12 = test system: KM12
LOX IMVI = test system: LOX IMVI
M14 = test system: M14
MCF7 = test system: MCF7
MDA-MB-231 = test system: MDA-MB-231
MDA-MB-435 = test system: MDA-MB-435
MDA-N = test system: MDA-N
MOLT-4 = test system: MOLT-4
Malme-3M = test system: Malme-3M
NCI-H226 = test system: NCI-H226
NCI-H23 = test system: NCI-H23
NCI-H460 = test system: NCI-H460
NCI-H522 = test system: NCI-H522
NCI/ADR-RES = test system: NCI/ADR-RES
OVCAR-4 = test system: OVCAR-4
OVCAR-5 = test system: OVCAR-5
OVCAR-8 = test system: OVCAR-8
PC-3 = test system: PC-3
RPMI-8226 = test system: RPMI-8226
RXF 393 = test system: RXF 393
SF-268 = test system: SF-268
SF-539 = test system: SF-539
SK-MEL-28 = test system: SK-MEL-28
SK-MEL-2 = test system: SK-MEL-2
SK-MEL-5 = test system: SK-MEL-5
SN12C = test system: SN12C
SNB-19 = test system: SNB-19
SNB-75 = test system: SNB-75
SR = test system: SR
SW-620 = test system: SW-620
T47D = test system: T47D
TK-10 = test system: TK-10
U-251 = test system: U-251
UACC-257 = test system: UACC-257
UACC-62 = test system: UACC-62
UO-31 = test system: UO-31
HOP-62 = test system: HOP-62
OVCAR-3 = test system: OVCAR-3
SF-295 = test system: SF-295
SK-OV-3 = test system: SK-OV-3

In the case of `O=C1CSC2(CC(/C=C/c3cccs3)=NN2c2cccc(S(=O)(=O)O)c2)N1c1nc2ccccc2s1` (centres undefined), the GI50 (786-0) is reported as 88.3 µM (inactive), the GI50 (A498) is reported as 15.6 µM (inactive) and the GI50 (A549) is reported as > 100 µM (inactive). The GI50 (ACHN) was 68.9 µM (inactive), the GI50 (BT-549) was 11.9 µM (inactive) and the GI50 (CAKI-1) was > 100 µM (inactive). The GI50 (CCRF-CEM) was 33 µM (inactive), the GI50 (COLO 205) was > 100 µM (inactive) and the GI50 (DU-145) was > 100 µM (inactive). For the same compound, the GI50 (EKVX) was 52.6 µM (inactive), the GI50 (HCC 2998) was > 100 µM (inactive) and the GI50 (HCT-116) was > 100 µM (inactive). For the same compound, the GI50 (HCT-15) was > 100 µM, the GI50 (HL-60) was > 100 µM (inactive) and the GI50 (HOP-92) was 41.2 µM (inactive). For the same compound, the GI50 (HT-29) was > 100 µM (inactive), the GI50 (Hs-578T) was > 100 µM (inactive) and the GI50 (IGROV-1) was 27.4 µM (inactive). For the same compound, the GI50 (K562) was 49.4 µM (inactive), the GI50 (KM12) was > 100 µM (inactive) and the GI50 (LOX IMVI) was 48.4 µM (inactive). The GI50 (M14) was > 100 µM (inactive), the GI50 (MCF7) was 54.1 µM (inactive) and the GI50 (MDA-MB-231) was > 100 µM (inactive). For the same compound, the GI50 (MDA-MB-435) was 72.4 µM (inactive), the GI50 (MDA-N) was > 100 µM (inactive) and the GI50 (MOLT-4) was 35.7 µM (inactive). For the same compound, the GI50 (Malme-3M) was > 100 µM (inactive), the GI50 (NCI-H226) was 39.9 µM (inactive) and the GI50 (NCI-H23) was 42.7 µM (inactive). The GI50 (NCI-H460) was 67.5 µM (inactive), the GI50 (NCI-H522) was 64.9 µM (inactive) and the GI50 (NCI/ADR-RES) was > 100 µM (inactive). The GI50 (OVCAR-4) was > 100 µM (inactive), the GI50 (OVCAR-5) was > 100 µM (inactive) and the GI50 (OVCAR-8) was > 100 µM (inactive). The GI50 (PC-3) was > 100 µM (inactive), the GI50 (RPMI-8226) was 31.1 µM (inactive) and the GI50 (RXF 393) was > 100 µM (inactive). The GI50 (SF-268) was > 100 µM (inactive), the GI50 (SF-539) was > 100 µM (inactive) and the GI50 (SK-MEL-28) was > 100 µM (inactive). For the same compound, the GI50 (SK-MEL-2) was > 100 µM (inactive), the GI50 (SK-MEL-5) was > 100 µM (inactive) and the GI50 (SN12C) was > 100 µM (inactive). The GI50 (SNB-19) was > 100 µM (inactive), the GI50 (SNB-75) was > 100 µM (inactive) and the GI50 (SR) was 30.2 µM (inactive). The GI50 (SW-620) was > 100 µM (inactive), the GI50 (T47D) was 21 µM (inactive) and the GI50 (TK-10) was 62.1 µM (inactive). The GI50 (U-251) was 65.6 µM (inactive), the GI50 (UACC-257) was > 100 µM (inactive) and the GI50 (UACC-62) was 49.4 µM (inactive). The GI50 (UO-31) was 83.6 µM (inactive).
In the case of `CC1(C)OC2C(CO)OC(n3ccc(N)nc3=O)C2O1` (centres undefined), the GI50 (786-0) is reported as > 100 µM (inactive), the GI50 (A498) is reported as 21.5 µM (inactive) and the GI50 (A549) is reported as > 100 µM (inactive). The GI50 (ACHN) was > 100 µM (inactive), the GI50 (BT-549) was > 100 µM (inactive) and the GI50 (CAKI-1) was > 100 µM (inactive). The GI50 (CCRF-CEM) was > 100 µM (inactive), the GI50 (COLO 205) was > 100 µM (inactive) and the GI50 (DU-145) was > 100 µM (inactive). The GI50 (EKVX) was > 100 µM (inactive), the GI50 (HCC 2998) was > 100 µM (inactive) and the GI50 (HCT-116) was > 100 µM (inactive). For the same compound, the GI50 (HCT-15) was > 100 µM, the GI50 (HL-60) was > 100 µM (inactive) and the GI50 (HOP-62) was > 100 µM (inactive). For the same compound, the GI50 (HOP-92) was > 100 µM (inactive), the GI50 (Hs-578T) was > 100 µM (inactive) and the GI50 (IGROV-1) was > 100 µM (inactive). The GI50 (K562) was > 100 µM (inactive), the GI50 (KM12) was > 100 µM (inactive) and the GI50 (LOX IMVI) was > 100 µM (inactive). For the same compound, the GI50 (M14) was > 100 µM (inactive), the GI50 (MCF7) was > 100 µM (inactive) and the GI50 (MDA-MB-231) was > 100 µM (inactive). The GI50 (MDA-MB-435) was > 100 µM (inactive), the GI50 (MDA-N) was > 100 µM (inactive) and the GI50 (MOLT-4) was > 100 µM (inactive). For the same compound, the GI50 (Malme-3M) was > 100 µM (inactive), the GI50 (NCI-H226) was > 100 µM (inactive) and the GI50 (NCI-H23) was > 100 µM (inactive). The GI50 (NCI-H460) was > 100 µM (inactive), the GI50 (NCI-H522) was > 100 µM (inactive) and the GI50 (NCI/ADR-RES) was > 100 µM (inactive). The GI50 (OVCAR-3) was > 100 µM (inactive), the GI50 (OVCAR-5) was > 100 µM (inactive) and the GI50 (OVCAR-8) was > 100 µM (inactive). The GI50 (PC-3) was > 100 µM (inactive), the GI50 (RPMI-8226) was > 100 µM (inactive) and the GI50 (RXF 393) was > 100 µM (inactive). For the same compound, the GI50 (SF-268) was > 100 µM (inactive), the GI50 (SF-295) was > 100 µM (inactive) and the GI50 (SF-539) was > 100 µM (inactive). The GI50 (SK-MEL-28) was > 100 µM (inactive), the GI50 (SK-MEL-2) was > 100 µM (inactive) and the GI50 (SK-MEL-5) was > 100 µM (inactive). The GI50 (SK-OV-3) was > 100 µM (inactive), the GI50 (SN12C) was > 100 µM (inactive) and the GI50 (SNB-19) was > 100 µM (inactive). The GI50 (SR) was > 100 µM (inactive), the GI50 (SW-620) was > 100 µM (inactive) and the GI50 (T47D) was > 100 µM (inactive). The GI50 (TK-10) was > 100 µM (inactive), the GI50 (U-251) was > 100 µM (inactive) and the GI50 (UACC-257) was > 100 µM (inactive). For the same compound, the GI50 (UACC-62) was > 100 µM (inactive) and the GI50 (UO-31) was > 100 µM (inactive).
For `Cc1ccc(S(=O)(=O)NNC(=O)Nc2ccc([N+](=O)[O-])cc2)cc1`, the GI50 (786-0) was 24.9 µM (inactive), the GI50 (A498) was 37.8 µM (inactive) and the GI50 (A549) was 35.6 µM (inactive). The GI50 (ACHN) was > 100 µM (inactive), the GI50 (BT-549) was 78.9 µM (inactive) and the GI50 (CAKI-1) was 65.8 µM (inactive). For the same compound, the GI50 (CCRF-CEM) was 45.3 µM (inactive), the GI50 (COLO 205) was 42.3 µM (inactive) and the GI50 (DU-145) was 83.2 µM (inactive). The GI50 (EKVX) was > 100 µM (inactive), the GI50 (HCC 2998) was 64.9 µM (inactive) and the GI50 (HCT-116) was 26.9 µM (inactive). For the same compound, the GI50 (HCT-15) was 24.5 µM, the GI50 (HL-60) was 36.1 µM (inactive) and the GI50 (HOP-62) was 27.9 µM (inactive). For the same compound, the GI50 (HOP-92) was 43.8 µM (inactive), the GI50 (HT-29) was 43.5 µM (inactive) and the GI50 (Hs-578T) was 34.6 µM (inactive). The GI50 (IGROV-1) was 35.2 µM (inactive), the GI50 (K562) was 38.4 µM (inactive) and the GI50 (KM12) was 23.8 µM (inactive). The GI50 (LOX IMVI) was 52.4 µM (inactive), the GI50 (M14) was 89.5 µM (inactive) and the GI50 (MCF7) was 35.6 µM (inactive). The GI50 (MDA-MB-231) was 22.1 µM (inactive), the GI50 (MDA-MB-435) was 55 µM (inactive) and the GI50 (MDA-N) was > 100 µM (inactive). For the same compound, the GI50 (MOLT-4) was 46.3 µM (inactive), the GI50 (Malme-3M) was 76 µM (inactive) and the GI50 (NCI-H226) was > 100 µM (inactive). For the same compound, the GI50 (NCI-H23) was 36.7 µM (inactive), the GI50 (NCI-H460) was 23.9 µM (inactive) and the GI50 (NCI-H522) was 26.5 µM (inactive). The GI50 (NCI/ADR-RES) was 27.4 µM (inactive), the GI50 (OVCAR-3) was 19.6 µM (inactive) and the GI50 (OVCAR-4) was 26.2 µM (inactive). The GI50 (OVCAR-5) was > 100 µM (inactive), the GI50 (OVCAR-8) was 17.4 µM (inactive) and the GI50 (PC-3) was 26.1 µM (inactive). For the same compound, the GI50 (RPMI-8226) was 20 µM (inactive), the GI50 (RXF 393) was > 100 µM (inactive) and the GI50 (SF-268) was 67.6 µM (inactive). The GI50 (SF-295) was 36.6 µM (inactive), the GI50 (SF-539) was 50.7 µM (inactive) and the GI50 (SK-MEL-28) was > 100 µM (inactive). For the same compound, the GI50 (SK-MEL-2) was > 100 µM (inactive), the GI50 (SK-MEL-5) was 29 µM (inactive) and the GI50 (SN12C) was 97.1 µM (inactive). The GI50 (SNB-19) was 69.5 µM (inactive), the GI50 (SNB-75) was 72.9 µM (inactive) and the GI50 (SR) was 42.6 µM (inactive). For the same compound, the GI50 (SW-620) was 33 µM (inactive), the GI50 (T47D) was 2.65 µM (inactive) and the GI50 (TK-10) was 67.3 µM (inactive). For the same compound, the GI50 (U-251) was 31 µM (inactive), the GI50 (UACC-257) was 46.5 µM (inactive) and the GI50 (UACC-62) was 22.8 µM (inactive). For the same compound, the GI50 (UO-31) was 47 µM (inactive).
